Active and inactive are the calls of the source. The rule behind the calls is not given here.

In this test the test system is MAGI host cells cytotoxicity, % cell control, 5% serum. Description: MAGI cell viability under compound exposure – 5% and 10% serum, set 2, cytotoxicity control for HIV-1 antiviral project, dose response (AID 2812).
The mark [1] stands for this setting: MAGI host cells cytotoxicity, % cell control, 10% serum.

For the compound `COc1ccc(C(=O)Oc2ccc(C=NNc3ccc(Cl)c(C(=O)O)c3)cc2OC)cc1`, the TC50 was > 100 µM (inactive). For the same compound, the TC50 under setting [1] is greater than 100 µM.
In turn, `O=C1NC(=S)N(c2ccc(F)cc2)C(=O)/C1=C/c1ccco1` yielded a TC50 under setting [1] greater than 100 µM.
`CC1(C)CC(=O)C2=C(C1)c1c(ccc3ccccc13)NC2c1cc([N+](=O)[O-])cc([N+](=O)[O-])c1O` (stereo not given): the TC50 was 58.6 µM. Moreover, the TC50 under setting [1] is greater than 100 µM.
The matching figures for `O=C(O)c1ccccc1C(=O)N(Cc1cccc(Oc2ccc(Cl)cc2)c1)[C@H]1CCCc2ccccc21`: 56.4 µM and greater than 100 µM.
On to `COc1cc(C=NNc2ccc(Cl)c(C(=O)O)c2)ccc1OC(=O)c1ccc(F)cc1`, for which the TC50 is > 100 µM (inactive). The TC50 under setting [1] was greater than 100 µM.
For `Cc1ccc(-n2cccc2/C=C2/C(=N)N3C(=NC2=O)SN=C3S(C)(=O)=O)cc1Cl` the same measures were > 100 µM (inactive) and greater than 100 µM.
The matching figures for `Cc1ccc(S(=O)(=O)Oc2ccc(/C=C3/C(=N)N4C(=NC3=O)SN=C4S(C)(=O)=O)cc2)cc1`: > 100 µM (inactive) and greater than 100 µM.
On to `Cc1cc(C)cc(-n2cccc2/C=C2/C(=N)N3C(=NC2=O)SN=C3S(C)(=O)=O)c1`, for which the TC50 was 79.5 µM. The compound also came in with a TC50 under setting [1] greater than 100 µM.
The matching figures for `CC(C)S(=O)(=O)C1=NSC2=NC(=O)/C(=C\c3ccc(-c4cccc(C(=O)O)c4)o3)C(=N)N21`: > 100 µM (inactive) and greater than 100 µM.
The matching figures for `CC(C)S(=O)(=O)C1=NSC2=NC(=O)/C(=C\c3ccc(-c4ccccc4)o3)C(=N)N21`: 74 µM and greater than 100 µM.
On to `O=C(O)c1cc(NN=Cc2ccc(-c3ccccc3)cc2)ccc1Cl`, for which the TC50 is > 100 µM (inactive). Also, under setting [1], the TC50 was greater than 100 µM.
For `CS(=O)(=O)C1=NSC2=NC(=O)/C(=C\c3cccn3-c3ccc(Cl)cc3)C(=N)N21` the same measures were > 100 µM (inactive) and greater than 100 µM.
Consider `COc1ccc(OC)c(N2C(=O)/C(=C/c3ccco3)C(=O)NC2=S)c1`, for which, under setting [1], the TC50 was greater than 100 µM.
Turning to `Cc1ccc(-n2c(O)c(C=Nc3ccccc3-c3n[nH]c(=S)[nH]c3=O)c3ccccc3c2=O)c(C)c1`, the TC50 under setting [1] is greater than 100 µM.
As to `COc1cc(C=NNc2ccc(Cl)c(C(=O)O)c2)ccc1OC(=O)c1ccccc1F`, the TC50 was > 100 µM (inactive). Under setting [1], this compound gave a TC50 greater than 100 µM.
As for `O=c1c(=Cc2cc([N+](=O)[O-])cc([N+](=O)[O-])c2O)sc2nc3ccccc3n12`, the TC50 was > 100 µM (inactive). In addition, the TC50 under setting [1] was greater than 100 µM.
For `CCS(=O)(=O)C1=NSC2=NC(=O)/C(=C\c3ccc(OS(=O)(=O)c4ccccc4)cc3)C(=N)N21`, the TC50 is > 100 µM (inactive). The TC50 under setting [1] was greater than 100 µM.
The matching figures for `CS(=O)(=O)C1=NSC2=NC(=O)/C(=C\c3ccc(OS(=O)(=O)c4ccccc4)cc3)C(=N)N21`: > 100 µM (inactive) and greater than 100 µM.
The matching figures for `COc1ccccc1NS(=O)(=O)c1cccc(-n2c(O)c(C=Nc3ccccc3C(=O)O)c3ccccc3c2=O)c1`: 93.7 µM and greater than 100 µM.

The values above are taken from PubChem BioAssay AID2812 (Southern Research Specialized Biocontainment Screening …, 2010).
